Measured values taken from patent US6497872B1, “Neural transplantation using proliferated multipotent neural stem cells and their progeny” (NeuroSpheres Holdings Ltd., priority 1991, dated 2002).

What was measured:
Primary striatal cells = assay: Striatum-derived neurosphere proliferation in response to proliferative and regulatory factors (Example 43, Paradigm 1); format: cell-based, mouse
Experimental: Paradigm 1: Primary striatal cells prepared as outlined in Example 1 were suspended in Complete Medium, without growth factors, plated in 96 well plates (Nunclon) and incubated as described in Example 4. Following a one hour incubation period, a specific proliferative factor, or a combination of proliferative factors including EGF, or bFGF (recombinant human bFGF: R & D Systems), or a combination of EGF and bFGF, or EGF plus FGF plus heparan sulfate (Sigma), or bFGF plus heparan sulfate made up in Complete Medium at a concentration of 20 ng/ml for each of the growth factors and 2 μg/ml for heparan sulfate), was added to each well of the plate.
Retinoic acid (Sigma) was added at a concentration of 10^−6 M. 10 μl of one of these regulatory factor-containing solutions was added to each proliferative factor-containing well of the 96 well plates. Control wells, containing only proliferative factors, were also prepared. […]
IL-2, IL-6, IL-8, MIP-1∂, MIP-1β, MIP-2, TNFα and EGF additions were repeated every second day, CNTF which was added each day and retinoic acid, NGF and PDGF were added only once, at the beginning of the experiment. The cells were incubated for a period of 10-12 days. The number of neurospheres in each well was counted and the resulting counts tabulated using Cricket Graph III. Other relevant information regarding sphere size and shape were also noted.

[1] = tested on: EGF-generated neurospheres; assay: Effect of growth factors on neurosphere differentiation, immunocytochemistry (Example 8); format: cell-based, mouse; settings: 20 ng/ml
Experimental: Six to 8 days after the first passage, the neurospheres were removed and centrifuged at 400 r.p.m. The EGF-containing supernatant was removed and the pellet suspended in EGF-free complete medium containing 1% FBS. Neurospheres (approximately 0.5-1.0×10^6 cells/well) were plated on poly-L-ornithine-coated (15 μg/ml) glass coverslips in 24 well Nuclon (1.0 ml/well) culture dishes. After 24 hours in culture, the coverslips were transferred to 12 well (Costar) culture dishes containing complete medium containing 0.5% FBS. The medium was changed every 4-7 days. This differentiation procedure is referred to as the “Rapid Differentiation Paradigm” or RDP.
Six to 8 days after the first passage, the neurospheres were removed and centrifuged at 400 r.p.m. The EGF-containing media was removed and the pellet was suspended in EGF-free complete medium containing 1% FBS. The neurospheres were mechanically dissociated into single cells with a fire-polished Pasteur pipette and centrifuged at 800 r.p.m. for 5 minutes. Between 0.5×10^6 and 1.0×10^6 cells were plated on poly-L-ornithine-coated (15 μg/ml) glass coverslips in 24 well Nuclon (1.0 ml/well) culture dishes. The EGF-free culture medium containing 1% FBS was changed every 4-7 days.
Neurospheres were washed free of EGF by serial transfers through changes of EGF-free medium. A single neurosphere was plated onto poly-L-ornithine-coated (15 μg/ml) glass coverslips in a 24-well plate. The culture medium used was complete medium with or without I % FBS. The medium was changed every 4-7 days.
Neurospheres were washed free of EGF by serial transfers through changes of EGF-free medium. A single neurosphere was mechanically dissociated in a 0.5 ml Eppendorf centrifuge tube and all the cells were plated onto a 35 mm culture dish. Complete medium was used with or without 1% FBS.
The effects of CNTF, FGF-2, BDNF, and retinoic acid on neurosphere differentiation were tested using the differentiation paradigms set forth in Example 7.
The effect of CNTF was assayed in paradigms 1 and 3. For both paradigms, CNTF was added either at the beginning of the experiment at a concentration of 10 ng/ml or daily at a concentration of 1 ng/ml.
Three different antibodies directed against 04, galactocerebroside (GalC) and MBP were used to study the effect of CNTF on the oligodendrocytes of paradigm 1. CNTF had no effect on the number of 04(+) cells, but there was an increase in the number of GalC(+) and MBP(+) cells compared with the control. Thus it appears that CNTF plays a role in the maturation of oligodendrocytes.
The effect of FGF-2 was tested using paradigms 2 and 4. In paradigm 2, 20 ng/ml of FGF-2 was added at the beginning of the experiment and cells were stained 7 days later. FGF-2 increased the number of GFAP(+) cells and the number of NSE(+) cells.
In paradigm 4, 20 ng/ml of FGF-2 was added at the beginning of the experiment and assayed 7-10 days later. […] It induced two different cell types to divide, neuroblasts and bipotential progenitor cells. The neuroblast produced, on average, 6 neurons while the bipotential cell produced approximately 6 neurons and a number of astrocytes.

Striatal cells (E14) = assay: FGF-2 priming of low-density striatal cells before EGF (Example 8); format: cell-based, mouse; settings: primed with 20 ng/ml FGF-2 for 11 DIV, then 20 ng/ml EGF 4-5 DIV; 2500 cell/cm^2
Experimental: Striatal cells (E14, 2500 cell/cm^2) were plated in the absence or presence of 20 ng/ml of FGF-2. After 11 DIV, cultures were washed and medium containing 20 ng/ml of EGF was added. After 4-5 DIV, in cultures that were primed with FGF-2, greater than 70% of the wells examined contained clusters of proliferating cells that developed into colonies with the morphologic and antigenic properties of the EGF-generated cells.

[2] = tested on: constitutively proliferating subependymal cells of the lateral ventricles; assay: In vivo proliferation of retrovirus β-gal labelled cells of the lateral ventricle (Example 27); design: species or system mouse
Experimental: A replication incompetent retrovirus containing the β-galactosidase gene [as described in Walsh and Cepko, Science 241:1342, (1988)] was injected into the forebrain lateral ventricles of CD1 adult male mice (25-30 g from Charles River). The injected retrovirus was harvested from the BAG cell line (ATCC CRL-9560) according to the method of Walsh and Cepko (supra). Mice were anesthetized using 65 mg/kg, i.p. sodium pentobarbital. Unilateral stereotactic injections of 0.2-1.0 μl of retrovirus were injected into the lateral ventricle using a 1 μl Hamilton syringe. The coordinates for injection were AP +4.2 mm anterior to lambda, L ±0.7 mm, and DV −2.3 mm below dura, with the mouth bar at −2 mm below the interaural line.
On the same day as, one day, or six days following the retrovirus injection, an infusion cannulae attached to a 0.5 μl/hour ALZET osmotic mini-pumps filled with 3.3-330 μg/ml of EGF were surgically implanted into the lateral ventricles at the identical stereotactic coordinates as stated above. The infusion cannula kits were obtained from ALZA. The infusion cannulae were cut to 2.7 mm below the pedestal. The pumps were secured to the mouse skull by use of acrylic cement and a skull screw contralateral and caudal to the injection site. […]

[3] = paradigm 2, stained 7 days later

In the case of “bFGF: basic fibroblast growth factor, recombinant human (R & D Systems)”, the “size of neurospheres relative to those generated in the presence of EGF” value (Primary striatal cells; bFGF alone) is reported as “about 20%”, the “neurospheres generated per well” value (Primary striatal cells; proliferative factor alone, 20 ng/ml) is reported as “approximately 70 neurospheres per well” and the “number of GFAP(+) cells” value [1, 3] is reported as “increased”. The “number of NSE(+) cells” value [1, 3] was “increased”, the “neurons produced per bipotential cell” value ([1]; paradigm 4) was “approximately 6 neurons” and the “neurons produced per neuroblast, on average” value ([1]; paradigm 4) was 6 neurons. For the same substance, the “proliferation of neural stem cell progeny generated by the EGF-responsive stem cell” value ([1]; paradigm 4, 7-10 days) was “induced the proliferation”, the “wells containing clusters of proliferating cells” value (Striatal cells (E14)) was “greater than 70%” and the “number of β-gal labelled cells” value ([2]; 33 μg/ml infusion) was “increase”. The “migration of β-gal labelled cells” value ([2]; 6 days infusion) was “not accompanied by any additional migration”.
